Source: BigSolDB 2.1

O=c1cc(-c2ccccc2)oc2cc(O)cc(O)c12
solubility (mole fraction)
Details	293.15 K	298.15 K	303.15 K	308.15 K	313.15 K	318.15 K	323.15 K
in ethanol	0.00689	0.00749	0.0078	0.00928	0.0108	0.0121	0.0137
in water	1.26e-05	1.86e-05	2.38e-05	3.53e-05	4.61e-05	6.5e-05	0.0001
